{"source": "patent US10301596B2", "about": "“Method of repairing damaged chondrocytes via low-dose irradiation” (KOREA INSTITUTE OF RADIOLOGICAL & MEDICAL SCIENCES, priority 2013, dated 2019)", "type_in_all_cases": "cell-based", "key": {"chondrocytes": {"tested_on": "chondrocytes", "test": "Levels of differentiation- and inflammation-related proteins (type II collagen, Sox-9, I-κB, COX-2), Western blot in chondrocytes", "method": "First, the chondrocytes derived from joints were cultured in a DMEM medium according to a known method (E. H. Hong, et al., J. Biol. Chem. 285:1283-1295, 2010). Then, the cultured chondrocytes were inoculated into culture dishes at a density of 5×10^4 cells/cm^2, which were irradiated with 0 cGy, 0.5 cGy, 1.0 cGy, 1.5 cGy, and 2.0 cGy LDR using a ^137Cs-ray source (KIRMS, Korea), and the levels of type II collagen or Sox-9 protein, which are cartilage-specific differentiation marker proteins, and I-κB or COX-2 protein, which are inflammation-related proteins, were determined via Western blot analysis, and the transcriptional activity of Sox-9 protein and NF-κB, which is affected by I-κB, were determined by reporter gene assay (FIGS. 1a and b). […]\nFinally, chondrocytes were transfected with 3 μg of GFP-labeled S83A α-catenin, FLAG-labeled S33A β-catenin, or wild type γ-catenin, reacted with or without treatment with 5 μM or 10 μM BAY 11-7082 for 24 hours, and the levels of I-κB and COX-2 proteins were determined via Western blot analysis (FIG. 5g). […]"}, "NF-κB": {"tested_on": "NF-κB", "test": "NF-κB transcriptional activity, reporter gene assay in chondrocytes", "conditions": "for NF-κB activity reduced compared to IL-1β-treated chondrocytes: 1 hour before 10 ng/mL IL-1β; for transcriptional activity of NF-κB increased: 10 ng/mL IL-1β", "method": "(§1) First, the chondrocytes derived from joints were cultured in a DMEM medium according to a known method (E. H. Hong, et al., J. Biol. Chem. 285:1283-1295, 2010). Then, the cultured chondrocytes were inoculated into culture dishes at a density of 5×10^4 cells/cm^2, which were irradiated with 0 cGy, 0.5 cGy, 1.0 cGy, 1.5 cGy, and 2.0 cGy LDR using a ^137Cs-ray source (KIRMS, Korea), and the levels of type II collagen or Sox-9 protein, which are cartilage-specific differentiation marker proteins, and I-κB or COX-2 protein, which are inflammation-related proteins, were determined via Western blot analysis, and the transcriptional activity of Sox-9 protein and NF-κB, which is affected by I-κB, were determined by reporter gene assay (FIGS. 1a and b).\n(§2) Chondrocytes were treated with either 10 ng/mL IL-1β alone, or in a combination of IL-1β treatment and 0.5 cGy or 1 cGy LDR, and the transcript levels of type I collagen, type II collagen, Sox-9, COX-2, and I-κB were measured via PCR using GAPDH as a control and a quantitative real-time PCR analysis, and the transcriptional activity of NF-κB was measured by reporter gene assay (FIGS. 2a, 2b, 2c, and 2d).\nMeanwhile, chondrocytes were treated with LY294002, which is another chemical inhibitor of PI3K/Akt signaling, at a concentration of 10 μM or 20 μM, reacted for 1 hour, treated with […] reacted for 48 hours. Upon reaction, the levels of type II collagen, Sox-9, I-κB, and COX-2 proteins were determined via Western blot analysis, and the transcriptional activity of NF-κB was determined by reporter gene assay (FIG. 3c).\nFinally, chondrocytes were transfected with 3 μg of the respective catenin plasmid for 24 hours, and untreated (−) or treated with 10 ng/mL, IL-1β (+) for 48 hours. Then, the levels of differentiation- and inflammation-related proteins were determined via Western blot analysis, and the transcriptional activity of NF-κB at 24 hours after IL-1β treatment was determined by reporter gene assay (FIG. 4d).\nAdditionally, the transcriptional activity of Sox-9 or NF-κB was determined by reporter gene assay, and the experimental results were indicated in terms of mean standard deviation (FIG. 5e). As a result, it was confirmed that LDR can increase the activity of Sox-9 in catenin-overexpressing chondrocytes while reducing the transcriptional activity of NF-κB. Specifically, as shown in FIG. 5e (left), 1 cGy LDR irradiation increased Sox-9 activity by about a 2.2-, 2.7-, and 2.4-fold compared to that in cells transfected with […], and, as shown in FIG. 5e (right), reduced NF-κB activity by about 74%, 78%, and 75%, respectively, thus confirming that LDR has the effect of inhibiting the induction of potential inflammation."}, "Sox-9": {"tested_on": "Sox-9", "test": "Sox-9 transcriptional activity, reporter gene assay in chondrocytes", "conditions": "10 ng/mL IL-1β alone", "method": "as §1, §2\nAdditionally, the transcriptional activity of Sox-9 or NF-κB was determined by reporter gene assay, and the experimental results were indicated in terms of mean standard deviation (FIG. 5e). […]"}, "COX-2": {"tested_on": "COX-2", "test": "COX-2 transcript level by PCR and quantitative real-time PCR in chondrocytes", "conditions": "10 ng/mL IL-1β", "method": "as §2"}, "Akt": {"tested_on": "Akt", "test": "Expression and phosphorylation of Akt and GSK3α/β, Western blot in chondrocytes", "conditions": "10 ng/mL IL-1β"}, "[1]": {"tested_on": "α-, β-, and γ-catenin proteins", "test": "Levels of catenin proteins, Western blot in chondrocytes", "conditions": "10 ng/mL IL-1β for a predetermined period of time", "method": "First, chondrocytes were treated with 10 ng/mL IL-1β for a predetermined period of time, and the levels of the catenin proteins were determined via Western blot analysis (FIG. 4a).\nFirst, it was examined whether LDR can directly regulate the expression of catenin proteins in chondrocytes. In this regard, chondrocytes, which were in a state untreated or treated with 10 ng/mL IL-1β, were irradiated at varied doses of LDR for 48 hours, and the levels of catenin proteins were determined via Western blot analysis (FIGS. 5a and 5h).\nIn order to examine whether the inhibitory effect of LDR on chondrocyte disorders is exclusively related to the responses to IL-1β, cells were treated with EGF, PMA, and RA, which are agents known to induce dedifferentiation of chondrocytes. Specifically, chondrocytes were treated or untreated with 10 ng/mL EGF(a), 10 nM PMA(b), and 1 μM RA(c) for 2 hours, treated or untreated with 0.5 cGy or 1 cGy LDR for 36 hours, and the levels of catenin proteins and differentiation/inflammation-related proteins were determined via Western blot analysis (FIGS. 6a, 6b, and 6c)."}, "[2]": {"conditions": "5 μM or 10 μM, 1 hour before 10 ng/mL IL-1β, 48 hours"}}, "data": [{"compound": "CCCCCCCCCCCCCC(=O)O[C@@H]1[C@@H](C)[C@@]2(O)[C@@H](C=C(CO)C[C@]3(O)C(=O)C(C)=C[C@@H]23)[C@@H]2C(C)(C)[C@]12OC(C)=O", "note": "[PMA, phorbol 12-myristate 13-acetate]", "values": [{"measurement": "pathological changes induced by soluble factor (type II collagen, Sox-9, COX-2 proteins)", "setting": "chondrocytes; 10 ng/mL EGF, 10 nM PMA or 1 μM RA", "value": "inhibition of expression of type II collagen and Sox-9 proteins and induction of COX-2 protein expression"}]}, {"compound": "Cc1ccc(S(=O)(=O)/C=C/C#N)cc1", "note": "[BAY 11-7082]", "values": [{"measurement": "degradation of I-κB and induction of COX-2 in cells transfected with α-, β- or γ-catenin", "setting": "chondrocytes; 5 μM or 10 μM for 24 hours, catenin-transfected chondrocytes", "value": "reversed"}, {"measurement": "COX-2 protein expression compared to IL-1β-treated chondrocytes", "setting": "chondrocytes; [2]", "value": "reduced COX-2 expression"}, {"measurement": "I-κB degradation", "setting": "chondrocytes; [2]", "value": "inhibited I-κB degradation in a dose-dependent manner"}]}, {"compound": "O=c1cc(N2CCOCC2)oc2c(-c3ccccc3)cccc12", "note": "[LY294002]", "values": [{"measurement": "NF-κB activity reduced compared to IL-1β-treated chondrocytes", "setting": "NF-κB; 10 μM", "value": "about 48%"}, {"measurement": "NF-κB activity reduced compared to IL-1β-treated chondrocytes", "setting": "NF-κB; 20 μM", "value": "~68", "unit": "%"}]}, {"compound": "IL-1β: cytokine used at 10 ng/mL to induce dedifferentiation, inflammation and destruction of chondrocytes", "values": [{"measurement": "transcriptional activity of Sox-9 reduced compared to control cells", "setting": "Sox-9; 24 hours after treatment", "value": "about 32%"}, {"measurement": "transcriptional activity of Sox-9 reduced compared to control cells", "setting": "Sox-9; 48 hours after treatment", "value": "~60", "unit": "%"}, {"measurement": "NF-κB activity increase, IL-1β treatment alone", "setting": "NF-κB; 10 ng/mL IL-1β alone, 24 hours after treatment, catenin experiment (FIG. 4d)", "value": "about 8.5 fold"}, {"measurement": "transcriptional activity of NF-κB increased", "setting": "NF-κB; 24 hours after treatment (FIG. 2c)", "value": "about 8.6 fold"}, {"measurement": "transcriptional activity of NF-κB increased", "setting": "NF-κB; 48 hours after treatment (FIG. 2c)", "value": "~6.7", "unit": "fold"}, {"measurement": "level of COX-2 expression increased compared to control group", "setting": "COX-2; 24 hours after treatment", "value": "about 9.8 fold"}, {"measurement": "level of COX-2 expression increased compared to control group", "setting": "COX-2; 48 hours after treatment", "value": "~7.7", "unit": "fold"}, {"measurement": "phosphorylation of Akt induced by treatment", "setting": "Akt", "value": "induced the phosphorylation of Akt"}, {"measurement": "level of type II collagen and Sox-9 proteins", "setting": "chondrocytes; 10 ng/mL IL-1β alone", "value": "reduced the level of type II collagen and Sox-9 proteins"}, {"measurement": "expression of α-, β-, and γ-catenin proteins", "setting": "[1]", "value": "expressed in a time-dependent manner"}]}]}
